Values joined by “and” are separate entries in the source; they are usually repeats but may differ in a detail not shown here. Equal entries are not always repeated.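 Protocol summary: plate cells (96-well), add compound at 5 concentrations, incubate 48 h, interpolate endpoints linearly. The concentration for 50% growth inhibition is given as GI50. TGI: concentration producing complete growth inhibition.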

Test systems include A498 renal; HCT-116 colon; HOP-62 NSCLC; HOP-92 NSCLC; HT29 colon; SN12C renal; UACC-62 melanoma; UO-31 renal.
Experiment in all cases: NCI anticancer screen, dose series, 48 h

Regarding `COc1ccc(-c2nnc(-c3c(C)n(C)n(-c4ccccc4)c3=O)o2)cc1`, the TGI in the experiment on A498 renal, in the experiment with HCT-116 colon, in the experiment on HOP-62 NSCLC, with HOP-92 NSCLC, in the experiment with HT29 colon and with SN12C renal was > 100 µM each time. Besides, the TGI in the experiment with UACC-62 melanoma and in the experiment on UO-31 renal was > 100 µM each time.
As to `CCCCN=C(NC#N)N(Cc1ccccc1)Cc1ccccc1`, the TGI with A498 renal was 63.7 µM; in the experiment with HCT-116 colon it was 39.5 µM; in the experiment with HOP-62 NSCLC it was 62 µM; with HOP-92 NSCLC it was 45.5 µM; with HT29 colon it was 28.7 µM; in the experiment with SN12C renal, 82 µM. Besides, the TGI is 34.8 µM in the experiment with UACC-62 melanoma and 58 µM with UO-31 renal.
For `COc1cc([C@H]2c3cc4c(cc3[C@H](NCc3ccc([N+](=O)[O-])cc3)C3COC(=O)[C@H]32)OCO4)cc(OC)c1O` (stereo partly specified), the TGI in the experiment on A498 renal was 2.67 µM; in the experiment with HCT-116 colon it was > 86.1 µM; with HOP-62 NSCLC, 0.784 µM; in the experiment with HOP-92 NSCLC, > 100 µM; in the experiment on HT29 colon, 14.6 µM; with SN12C renal it was 4.68 µM. For the same compound, the TGI in the experiment with UACC-62 melanoma was found to be 12.1 µM; in the experiment with UO-31 renal, 5.75 µM.
Turning to `CCC(=O)C(C)C(=O)C(=O)C(=O)OC` (stereo unspecified), the TGI with A498 renal, in the experiment on HCT-116 colon, in the experiment with HOP-62 NSCLC, in the experiment with HOP-92 NSCLC, in the experiment on HT29 colon and in the experiment with SN12C renal was > 100 µM in each case. For the same compound, the TGI with UACC-62 melanoma and with UO-31 renal was > 100 µM each time.
`COC(=O)[C@@]1(O)CC(C)C=C1C=O` (stereo partly specified): the TGI in the experiment on A498 renal was > 100 µM; in the experiment with HCT-116 colon it was 38.4 µM; in the experiment with HOP-62 NSCLC, > 100 µM; in the experiment with HOP-92 NSCLC, > 100 µM; in the experiment with HT29 colon it was > 100 µM; in the experiment with SN12C renal, > 100 µM. The TGI with UACC-62 melanoma and in the experiment with UO-31 renal was > 100 µM each time.
As to `CCO/C=C1\N=C(C(Cl)c2ccccc2)OC1=O` (stereo unspecified), the TGI in the experiment on A498 renal, with HOP-62 NSCLC, in the experiment with HOP-92 NSCLC, in the experiment on HT29 colon, with SN12C renal and in the experiment on UACC-62 melanoma was > 100 µM throughout. The TGI with UO-31 renal is > 100 µM.
Regarding `CN(C(=O)C12C3(C(=O)C(C)(C)C)C4C5(C#N)C3C1(C(=O)C(C)(C)C)C5C42C(=O)C(C)(C)C)C(C)(C)C` (stereo unspecified), the TGI in the experiment on A498 renal, in the experiment with HCT-116 colon, with HOP-62 NSCLC, in the experiment with HOP-92 NSCLC, with HT29 colon and with SN12C renal was > 50 µM each time. For the same compound, the TGI in the experiment on UACC-62 melanoma and with UO-31 renal was > 50 µM throughout.
Regarding `CC(C)(c1ccc(Oc2ccc(C#N)c(C#N)c2)cc1)c1ccc(Oc2ccc(C#N)c(C#N)c2)cc1`, the GI50 in the experiment with A498 renal, in the experiment with HCT-116 colon, in the experiment with HOP-62 NSCLC, in the experiment with HOP-92 NSCLC, in the experiment on HT29 colon and in the experiment on SN12C renal was > 100 µM throughout. Further, the GI50 with UACC-62 melanoma is > 100 µM. Further, the TGI with A498 renal, with HCT-116 colon, in the experiment with HOP-62 NSCLC, in the experiment with HOP-92 NSCLC, with HT29 colon and in the experiment with SN12C renal was > 100 µM each time. Also, the TGI in the experiment on UACC-62 melanoma and in the experiment on UO-31 renal was > 100 µM in each case.
As to `CC(=O)OC(C)(C)/C=C/C(=O)[C@](C)(O)[C@H]1[C@H](O)C[C@@]2(C)[C@@H]3CC=C4[C@@H](C[C@H](O)C(=O)C4(C)C)[C@]3(CO)C(=O)C[C@]12C`, the GI50 with A498 renal was 0.0791 µM; in the experiment with HCT-116 colon it was 0.236 µM; in the experiment on HOP-92 NSCLC, 0.282 µM; in the experiment on HT29 colon, 0.276 µM; in the experiment on SN12C renal, 0.368 µM; with UACC-62 melanoma, 0.127 µM. For the same compound, the GI50 in the experiment with UO-31 renal is 0.251 µM. In addition, the TGI is 0.431 µM and 0.213 µM in the experiment on A498 renal; 10 µM in the experiment with HCT-116 colon; 0.528 µM and 0.482 µM in the experiment on HOP-62 NSCLC; 0.435 µM and 0.454 µM in the experiment on HOP-92 NSCLC; 17.4 µM in the experiment on SN12C renal; 15.8 µM in the experiment on UACC-62 melanoma. Further, in the experiment on UO-31 renal, the TGI is 0.883 µM and 0.565 µM.
Take `NC(=O)C(=Cc1ccc(CP(=O)(O)O)cc1)C(N)=O`: the TGI in the experiment with A498 renal, with HCT-116 colon, with HOP-62 NSCLC, in the experiment with HOP-92 NSCLC, in the experiment with HT29 colon and in the experiment on SN12C renal was > 100 µM throughout. For the same compound, the TGI in the experiment on UACC-62 melanoma and with UO-31 renal was > 100 µM each time.
For the compound `Nc1nc(NC2C=C(CO)C(O)C2O)c([N+](=O)[O-])c(=O)[nH]1` (stereo unspecified), the TGI in the experiment with A498 renal, in the experiment with HCT-116 colon, in the experiment on HOP-62 NSCLC, in the experiment with HOP-92 NSCLC, in the experiment with HT29 colon and in the experiment on SN12C renal was > 100 µM in each case. In addition, the TGI in the experiment on UACC-62 melanoma and in the experiment with UO-31 renal was > 100 µM in each case.
As to `NC(CC(=O)Nc1ccc(Cl)cc1)=Nc1ccccc1`, the TGI in the experiment on A498 renal, with HCT-116 colon, in the experiment on HOP-62 NSCLC, in the experiment on HT29 colon, in the experiment with SN12C renal and in the experiment on UACC-62 melanoma was > 100 µM in each case. For the same compound, the TGI in the experiment on UO-31 renal was > 100 µM.
Turning to `CCCCCCCC(=O)OCC1OC(n2cc(F)c(=O)[nH]c2=O)C(NC(=O)OCc2ccccc2)C(O)C1O` (stereo unspecified), the TGI with A498 renal is > 100 µM; in the experiment with HCT-116 colon, > 100 µM; in the experiment on HOP-62 NSCLC it was > 100 µM; with HOP-92 NSCLC, 65.2 µM; in the experiment on HT29 colon it was > 100 µM; in the experiment on SN12C renal, > 100 µM. Also, the TGI in the experiment with UACC-62 melanoma and with UO-31 renal was > 100 µM throughout.
Consider `O=c1cc(-c2ccccc2)nc(/C=C(\O)c2ccncc2)n1-c1ccccc1`, for which the TGI in the experiment with A498 renal, with HCT-116 colon, in the experiment with HOP-62 NSCLC, in the experiment on HOP-92 NSCLC, in the experiment on HT29 colon and in the experiment on SN12C renal was > 100 µM in each case. For the same compound, the TGI in the experiment with UACC-62 melanoma and in the experiment with UO-31 renal was > 100 µM each time.
Consider `CCCCCCCCC(O)C#CC(N)=O` (stereo unspecified), for which the TGI worked out at 31 µM with A498 renal; 16.6 µM in the experiment with HCT-116 colon; 24.3 µM in the experiment with HOP-92 NSCLC; 24.5 µM in the experiment with HT29 colon; 23.8 µM with SN12C renal; 19.9 µM with UACC-62 melanoma. The compound further gave a TGI with UO-31 renal of 21.6 µM.
`COc1ccc(OC)c(NCC#N)c1`: the TGI in the experiment with A498 renal, with HCT-116 colon, in the experiment on HOP-62 NSCLC, in the experiment with HOP-92 NSCLC, in the experiment on HT29 colon and with SN12C renal was > 100 µM each time. Moreover, the TGI with UACC-62 melanoma and with UO-31 renal was > 100 µM throughout.
Consider `O=c1nc(NC(c2ccccc2)(c2ccccc2)c2ccccc2)ccn1CCO`, for which the TGI in the experiment on A498 renal, in the experiment with HCT-116 colon, in the experiment on HOP-62 NSCLC, with HOP-92 NSCLC, with HT29 colon and with SN12C renal was > 100 µM throughout. In the experiment on UO-31 renal, the TGI is > 100 µM.
Regarding `COc1cc(C=O)c(-c2cc3c(cc2C2(C)OCCS2)OCO3)c(OC)c1OC` (stereo unspecified), the TGI in the experiment on A498 renal worked out at 23.9 µM; in the experiment with HCT-116 colon, 28.2 µM; with HOP-62 NSCLC, 47.1 µM; in the experiment on HOP-92 NSCLC, 90.3 µM; in the experiment with HT29 colon, 20.7 µM; in the experiment with SN12C renal, 49.8 µM. Moreover, the TGI with UACC-62 melanoma is 61.4 µM; in the experiment with UO-31 renal, 64.2 µM.
`CSc1nc(SC)c2c(C(N)=S)[nH]nc2n1`: the TGI in the experiment with A498 renal is 71.7 µM; with HOP-62 NSCLC, 58.5 µM; in the experiment with HOP-92 NSCLC, 50.4 µM; with HT29 colon, > 100 µM; in the experiment on SN12C renal it was > 100 µM; in the experiment with UACC-62 melanoma it was 55.6 µM. In the experiment on UO-31 renal, this compound yielded a TGI of 49.6 µM.
In the case of `Cc1ccc(C(=O)N2c3ccccc3N(C)n3cccc3C2CC(=O)O)cc1` (stereo unspecified), the TGI in the experiment on A498 renal, in the experiment on HOP-62 NSCLC, with HOP-92 NSCLC, in the experiment on HT29 colon, in the experiment on SN12C renal and in the experiment on UACC-62 melanoma was > 100 µM each time. Also, the TGI with UO-31 renal was > 100 µM.
On to `O=C1C2CC=CCC2C(=O)C12CCc1ccccc12` (stereo unspecified), for which the TGI in the experiment on HOP-62 NSCLC, in the experiment on HOP-92 NSCLC, in the experiment with HT29 colon, with SN12C renal, in the experiment with UACC-62 melanoma and in the experiment on UO-31 renal was > 100 µM each time.
`COC(=O)c1ccc(NC(=O)c2cc(OC)c(OC)c(OC)c2)cc1`: the TGI in the experiment with A498 renal, with HCT-116 colon, in the experiment with HOP-62 NSCLC, in the experiment on HOP-92 NSCLC, in the experiment with HT29 colon and in the experiment with UACC-62 melanoma was > 100 µM throughout. The compound further gave a TGI in the experiment with UO-31 renal of 66.9 µM.
Take `CC1=C(C(=O)Nc2ccc([N+](=O)[O-])cc2)C(c2ccccc2O)C(C(=O)Nc2ccc([N+](=O)[O-])cc2)=C(C)N1`: the TGI with A498 renal was determined as 66.4 µM; with HOP-62 NSCLC, 31.9 µM; in the experiment on HOP-92 NSCLC it was 40.1 µM; in the experiment on HT29 colon, 57.8 µM; with SN12C renal, 55.5 µM; with UO-31 renal it was 67.8 µM.

Values taken from PubChem BioAssay (NCI).
